Our source for the remaining activity values is PMC5564600 (Oncotarget, 2017).

Common to all, as to assay: biochemical
What all share (format): binding

The target in test [1] is T1, panel of 442 kinases (Homo sapiens, UniProt P20794).
T1 construct: purchased Ambit Biosciences (scanMAXX KINOMEscan)
T1 sequence (P20794 1-623): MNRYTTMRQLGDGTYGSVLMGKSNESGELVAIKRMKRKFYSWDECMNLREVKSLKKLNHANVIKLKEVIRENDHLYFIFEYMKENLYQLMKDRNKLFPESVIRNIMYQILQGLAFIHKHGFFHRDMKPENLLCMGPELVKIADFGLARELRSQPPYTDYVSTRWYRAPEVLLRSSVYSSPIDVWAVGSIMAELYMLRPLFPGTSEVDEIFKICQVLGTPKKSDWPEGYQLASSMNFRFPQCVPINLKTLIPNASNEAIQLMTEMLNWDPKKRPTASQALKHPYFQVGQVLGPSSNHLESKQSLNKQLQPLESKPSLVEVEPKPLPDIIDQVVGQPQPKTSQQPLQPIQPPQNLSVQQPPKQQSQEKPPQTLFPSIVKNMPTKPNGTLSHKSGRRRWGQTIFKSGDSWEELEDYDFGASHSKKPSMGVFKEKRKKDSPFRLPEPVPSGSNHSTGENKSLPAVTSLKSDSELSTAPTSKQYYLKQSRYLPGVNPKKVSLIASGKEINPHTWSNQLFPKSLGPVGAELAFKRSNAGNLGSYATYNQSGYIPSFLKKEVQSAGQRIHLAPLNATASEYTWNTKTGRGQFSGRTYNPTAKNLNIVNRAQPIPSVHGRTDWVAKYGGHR
Particulars: kinase MAK; for remaining activity at 1 µM: read-out: % of control at 1 µM.

In test [2] the target is T2, panel of 442 kinases (Homo sapiens, UniProt P51817).
T2 construct: purchased Ambit Biosciences (scanMAXX KINOMEscan)
T2 sequence (P51817 1-358): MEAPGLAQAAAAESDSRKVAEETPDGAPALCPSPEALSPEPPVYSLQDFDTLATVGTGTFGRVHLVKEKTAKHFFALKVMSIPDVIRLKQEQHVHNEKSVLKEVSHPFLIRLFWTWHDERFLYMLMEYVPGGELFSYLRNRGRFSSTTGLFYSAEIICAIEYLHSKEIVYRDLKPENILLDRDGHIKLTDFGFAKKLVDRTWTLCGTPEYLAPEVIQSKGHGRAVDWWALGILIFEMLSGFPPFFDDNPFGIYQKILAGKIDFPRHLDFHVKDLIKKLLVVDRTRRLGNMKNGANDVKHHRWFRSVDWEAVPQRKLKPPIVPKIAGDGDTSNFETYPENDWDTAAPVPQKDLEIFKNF
Particulars: kinase PRKX; for remaining activity at 1 µM: read-out: PRKX (% of control at 1 µM).

In test [3] the target is T3, panel of 442 kinases (Homo sapiens, UniProt Q92772).
T3 construct: purchased Ambit Biosciences (scanMAXX KINOMEscan)
T3 sequence (Q92772 1-493): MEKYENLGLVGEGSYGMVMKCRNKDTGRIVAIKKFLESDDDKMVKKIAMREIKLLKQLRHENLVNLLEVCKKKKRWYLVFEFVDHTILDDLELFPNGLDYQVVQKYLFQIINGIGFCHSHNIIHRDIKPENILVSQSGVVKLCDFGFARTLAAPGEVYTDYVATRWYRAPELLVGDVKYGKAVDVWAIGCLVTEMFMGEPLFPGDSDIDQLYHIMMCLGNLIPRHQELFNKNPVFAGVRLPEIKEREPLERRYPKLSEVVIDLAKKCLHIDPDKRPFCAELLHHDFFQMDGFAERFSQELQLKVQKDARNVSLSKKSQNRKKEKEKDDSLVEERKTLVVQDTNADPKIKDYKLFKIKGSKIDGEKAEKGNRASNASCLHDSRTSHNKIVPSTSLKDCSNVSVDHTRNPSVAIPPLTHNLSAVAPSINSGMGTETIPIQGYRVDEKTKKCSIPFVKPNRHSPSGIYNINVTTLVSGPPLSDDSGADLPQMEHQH
Particulars: CDKL2; for remaining activity at 1 µM: read-out: % of control at 1 µM.

For test [4], the target named is T4, panel of 442 kinases (Homo sapiens, UniProt Q9UBE8).
T4 construct: purchased Ambit Biosciences (scanMAXX KINOMEscan)
T4 sequence (Q9UBE8 1-527): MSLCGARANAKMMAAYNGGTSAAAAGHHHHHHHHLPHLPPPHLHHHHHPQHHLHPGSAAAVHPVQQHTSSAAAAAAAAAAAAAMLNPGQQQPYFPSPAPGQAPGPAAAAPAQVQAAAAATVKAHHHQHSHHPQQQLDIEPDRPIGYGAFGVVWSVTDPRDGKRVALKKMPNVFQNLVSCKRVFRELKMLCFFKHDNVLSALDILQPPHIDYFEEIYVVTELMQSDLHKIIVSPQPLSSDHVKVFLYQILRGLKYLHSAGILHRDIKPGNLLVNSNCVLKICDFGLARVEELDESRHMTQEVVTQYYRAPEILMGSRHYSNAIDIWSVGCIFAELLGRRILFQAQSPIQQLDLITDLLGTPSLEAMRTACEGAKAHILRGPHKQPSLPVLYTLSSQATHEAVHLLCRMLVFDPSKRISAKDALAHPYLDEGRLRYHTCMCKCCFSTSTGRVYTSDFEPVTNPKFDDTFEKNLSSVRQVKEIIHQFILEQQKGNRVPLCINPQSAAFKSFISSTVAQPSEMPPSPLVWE
Particulars: kinase NLK; for remaining activity at 1 µM: read-out: % of control at 1 µM.

The mark [5] stands for this setting: 10 µM, read-out: % of control at 10 µM.

Take `COc1ncc(-c2ccc3nccc(-c4ccnnc4)c3c2)cc1NS(=O)(=O)c1ccc(F)cc1F` [Omipalisib]: the remaining activity at 1 µM was 71% at panel of 442 kinases [1], 100% at panel of 442 kinases [2], 90% at panel of 442 kinases [3] and 95% on panel of 442 kinases [4].
The matching figures for `Cn1c(=O)n(-c2ccc(C(C)(C)C#N)cc2)c2c3cc(-c4cnc5ccccc5c4)ccc3ncc21` [Dactolisib, 2-methyl-2-[4-(3-methyl-2-oxo-8-quinolin-3-yl-2,3-dihydroimidazo[4,5-c]quinolin-1-yl)-phenyl] propionitrile]: 64%, 77%, 26% and 81%.
As to `Nc1cc(C(F)(F)F)c(-c2cc(N3CCOCC3)nc(N3CCOCC3)n2)cn1` [Buparlisib], the remaining activity at 1 µM was determined as 98% at panel of 442 kinases [1], 100% on panel of 442 kinases [2], 66% on panel of 442 kinases [3] and 93% at panel of 442 kinases [4]. Besides, the remaining activity at 10 µM amounted to 89% at panel of 442 kinases [1] (setting [5]); 100% on panel of 442 kinases [2] (10 µM, read-out: PRKX (% of control at 10 µM)); 100% at panel of 442 kinases [3] (setting [5]); 100% at panel of 442 kinases [4] (setting [5]).
In the case of `FC(F)c1nc2ccccc2n1-c1nc(N2CCOCC2)nc(N2CCOCC2)n1` [ZSTK474, 2-(difluoromethyl)-1-[4,6-di(4-morpholinyl)-1,3,5-triazin-2-yl]-1H-benzimidazole], the remaining activity at 1 µM was 87% on panel of 442 kinases [1], 100% on panel of 442 kinases [2], 100% at panel of 442 kinases [3] and 84% on panel of 442 kinases [4].
